Measured values taken from patent US10981932B2, “Macrocyclic indole derivatives” (Bayer Aktiengesellschaft, priority 2016, dated 2021).
“And” between values parts separate entries of the source, which are not always exact repeats. Equal entries are not always repeated. Structures can show the parent of a compound that is named as a salt. Where two headings read alike, the source gives them in different places.

Key:
SUDHL5 [1] = experiment: Induction of cytotoxicity (CellTiter-Glo, 5 h), SUDHL5
Method: (§3) Therefore, cytotoxicity assays were run in parallel in SUDHL5 and SUDHL10 cells.
(§4) The different cell lines were plated in culture medium (RPMI 1640 [GIBCO #22400-089]supplemented with 10% Fetal Bovine Serum) at a density of 3.300 cells in 30 μl/well in a sterile, solid black, flat bottom, polystyrene, TC-treated 384-well microplate (Corning #3571) using Multidrop Combi Reagent Dispenser. As a control, medium without cells was also added to the plate. Cells were incubated in a humidified incubator at 37° C. overnight. On the next day, the cells were treated with compounds (stock solution, 10 mM in DMSO) using the HP D300 Digital Dispenser in a concentration range of 3.3×10e-5 M (33 μM) to 5×10e-9 M (5 nM) in a single-dot curve with at least 16 dilutions and a DMSO concentration of 0.33%. Rim wells were excluded. The cells were incubated for 5 h hours in a humidified incubator at 37° C. After this incubation, 30 μl of CellTiter-Glo@ Luminescent Cell Viability reagent (Promega, G7573) was added to each well using the Multidrop Combi Reagent Dispenser, followed by 15 min incubation on a shaker at room temperature. Finally, luminescence was read at 0.1 ms, with a gain of 3000 using the PHERAstar FS microplate reader (BMG Labtech).
(§5) The Bella DRC Master Sheet was used to calculate IC50s, with fixed CI=0 and C0=1.

MCL-1 = MCL-1 (Homo sapiens, UniProt Q07820); experiment: Protein-protein interaction assay MCL-1/Noxa BH3 peptide (MCL-1 assay), TR-FRET; assay type: binding; settings: MBP-MCL-1 / Noxa BH3-derived peptide, median
Chain of MCL-1 (Q07820 whole entry): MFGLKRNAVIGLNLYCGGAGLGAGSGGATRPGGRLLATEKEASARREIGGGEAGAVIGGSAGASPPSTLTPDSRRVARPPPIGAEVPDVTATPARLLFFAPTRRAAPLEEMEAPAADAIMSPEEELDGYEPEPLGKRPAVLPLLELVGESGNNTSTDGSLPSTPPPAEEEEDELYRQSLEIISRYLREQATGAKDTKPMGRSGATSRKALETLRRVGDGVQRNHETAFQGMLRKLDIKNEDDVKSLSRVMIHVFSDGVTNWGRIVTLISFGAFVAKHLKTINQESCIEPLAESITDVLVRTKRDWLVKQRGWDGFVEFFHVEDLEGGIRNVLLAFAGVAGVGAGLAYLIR
Summary of the method: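 Inhibition values were normalized between DMSO controls with all reagents and controls lacking MCL-1. The binding competition used 1 nM MBP-MCL-1 in pH 7 Tris buffer containing 50 mM KF and 100 mM NaCl, with a 10 min compound preincubation at 22 °C.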

SUDHL10 [2] = experiment: Anti-proliferative effect (CellTiter-Glo, 72 h), SUDHL10; assay type: cell-based; settings: SUDHL10 cells, antiproliferation, 72 h incubation, median, read-out: Antiproli SUDHL10 [M] (median)
Summary of the method: (§1)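 Luminescence from CellTiter-Glo, read 10 min after reagent addition, reports viable cell content after 72 h of compound treatment at 37 °C. A reference plate read at day 0 gives the starting baseline.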

SUDHL10 [3] = experiment: Induction of cytotoxicity (CellTiter-Glo, 5 h), SUDHL10
Method: as §3, §4, §5

OPM2 = experiment: Anti-proliferative effect (CellTiter-Glo, 72 h), OPM2; assay type: cell-based; settings: OPM2 cells, median, read-out: IC50 antiproliferation assay OPM2 [M] (median)
Summary of the method: as §1

SUDHL5 [4] = experiment: Anti-proliferative effect (CellTiter-Glo, 72 h), SUDHL5; assay type: cell-based; settings: SUDHL5 cells, antiproliferation, 72 h incubation, median, read-out: Antiproli SUDHL5 [M] (median)
Summary of the method: as §1

SUDHL5 [5] = experiment: Induction of caspase-3/7 activity (Caspase-Glo 3/7), SUDHL5; assay type: cell-based; settings: caspase-3/7 induction, SUDHL5 cells, 3 h treatment, median
Summary of the method: (§2)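 Apoptosis induction measured as caspase-3/7 activity (Caspase-Glo 3/7) in DLBCL lines after 3 h treatment at 37 °C; EC50 derived relative to the reference compound's maximal induction, with C0 fixed at 1.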

A2780 = experiment: Anti-proliferative effect (CellTiter-Glo, 72 h), A2780; assay type: cell-based; settings: A2780 cells, median, read-out: IC50 antiproliferation assay A2780 [M] (median)
Summary of the method: as §1

SUDHL10 [6] = experiment: Induction of caspase-3/7 activity (Caspase-Glo 3/7), SUDHL10; assay type: cell-based; settings: caspase-3/7 induction, SUDHL10 cells, 3 h treatment, median
Summary of the method: as §2

[7] = read-out: Cytotox SUDHL5 [M] (median), SUDHL5 cells, cytotoxicity induction, CellTiter-Glo, 5 h incubation, median
[8] = read-out: Cytotox SUDHL10 [M] (median), SUDHL10 cells, cytotoxicity induction, CellTiter-Glo, 5 h incubation, median
[9] = Homo sapiens, SU-DHL10, 5 h, read-out: Cytotox SUDHL10 [M] (median), SUDHL10 cells, cytotoxicity induction, CellTiter-Glo, 5 h incubation, median
[10] = Homo sapiens, SU-DHL-5, 5 h, read-out: Cytotox SUDHL5 [M] (median), SUDHL5 cells, cytotoxicity induction, CellTiter-Glo, 5 h incubation, median

Row | IC50 (MCL-1) [µM] | IC50 (SUDHL10 [2]) | IC50 (SUDHL5 [4]) [M] | EC50 (SUDHL5 [5]) [µM] | IC50 (A2780) [M] | EC50 (SUDHL10 [6]) [µM] | IC50 (SUDHL5 [4]; Homo sapiens, SU-DHL-5, 72 h) [M] | IC50 (SUDHL10 [2]; Homo sapiens, SU-DHL10, 72 h) [M] | EC50 (SUDHL5 [5]; Homo sapiens, SU-DHL-5, 3 h) [µM] | IC50 (A2780; Homo sapiens, A2780, 72 h) [M] | EC50 (SUDHL10 [6]; Homo sapiens, SU-DHL10, 3 h) [µM] | Compound | IC50 (SUDHL5 [1]; [7]) [M] | IC50 (SUDHL10 [3]; [8]) [M] | IC50 (OPM2) [M] | IC50 (SUDHL10 [3]; [9]) [M] | IC50 (OPM2; Homo sapiens, OPM-2, 72 h) [M] | IC50 (SUDHL5 [1]; [10]) [M]
1 | 0.00789 |  |  |  |  | 6.35 | > 3.3e-05 | > 3.3e-05 | 6.03 | > 3.3e-05 |  | CN1CCCn2c(C(=O)O)c(CCCOc3cccc4ccccc34)c3cccc(c32)-c2c(COc3ccc(N4CCOCC4)cc3)nn(C)c2C1 (single isomer, unassigned) [Example 1-88, (+)-7,9-dimethyl-11-{[4-(morpholin-4-yl)phenoxy]methyl}-1-[3-(naphthalen-1-yloxy)propyl]-4,5,6,7,8,9-hexahydropyrazolo[3′,4′:7,8][1,5]diazecino[9,10,1-hi]indole-2-carboxylic Acid] | 5.9e-06 |  |  | 6.19e-06 | > 3.3e-05 | 
2 | 0.0541 | 2.02e-05 M | > 3.3e-05 | 11.7 | > 3.3e-05 | 27.5 |  |  |  |  |  | CN1CCCn2c(C(=O)O)c(CCCOc3cccc4ccccc34)c3cccc(c32)-c2c(COc3ccc(N4CCOCC4)cc3)nn(C)c2C1 (single isomer, unassigned) [Example 1-89, (−)-7,9-dimethyl-11-{[4-(morpholin-4-yl)phenoxy]methyl}-1-[3-(naphthalen-1-yloxy)propyl]-4,5,6,7,8,9-hexahydropyrazolo[3′,4′:7,8][1,5]diazecino[9,10,1-hi]indole-2-carboxylic Acid] | 1.39e-05 | 1.14e-05 | > 3.3e-05 |  |  | 
3 | 0.304 |  | 2.43e-06 | 15.2 | 2.47e-06 |  |  | 1.73e-06 |  |  | 5.18 | CCN(CC)S(=O)(=O)N1CCN(c2ccc(OCc3nn(C)c4c3-c3cccc5c(CCCOc6cccc7ccccc67)c(C(=O)O)n(c35)CCCCOC4)cc2)CC1 (single isomer, unassigned; enantiomer 1) [Example 1-4, 3-({4-[4-(diethylsulfamoyl)piperazin-1-yl]phenoxy}methyl)-1-methyl-7-[3-(naphthalen-1-yloxy)propyl]-1,10,11,12,13,15-hexahydropyrazolo[4′,3′:9,10][1,6]oxazacycloundecino[8,7,6-hi]indole-8-Carboxylic acid (Enantiomer 1)] | 1.83e-05 |  | 3.36e-06 | 7.42e-06 |  | 
4 | 0.0577 |  | 1.03e-05 | 27.5 |  | 21.8 |  | 1.17e-05 |  | 7.4e-06 |  | Cn1nc(COc2ccc(N3CCOCC3)cc2)c2c1COCCCCn1c(C(=O)O)c(CCCOc3cccc4ccccc34)c3cccc-2c31 (single isomer, unassigned; enantiomer 1) [Example 122, 1-methyl-3-{[4-(morpholin-4-yl)phenoxy]methyl}-7-[3-(naphthalen-1-yloxy)propyl]-1,10,11,12,13,15-hexahydropyrazolo[4′,3′:9,10][1,6]oxazacycloundecino[8,7,6-hi]indole-8-carboxylic Acid (Enantiomer 1)] | 2.92e-05 |  |  | > 3.3e-05 | 2.79e-06 | 

Further lines, the compound ahead of its results:

Row | Compound | IC50 (MCL-1) [µM] | IC50 (SUDHL10 [2]) | IC50 (SUDHL5 [4]) [M] | EC50 (SUDHL5 [5]) [µM] | IC50 (A2780) [M] | EC50 (SUDHL10 [6]) [µM] | IC50 (SUDHL5 [4]; Homo sapiens, SU-DHL-5, 72 h) [M] | IC50 (SUDHL10 [2]; Homo sapiens, SU-DHL10, 72 h) [M] | EC50 (SUDHL5 [5]; Homo sapiens, SU-DHL-5, 3 h) [µM] | IC50 (A2780; Homo sapiens, A2780, 72 h) [M] | EC50 (SUDHL10 [6]; Homo sapiens, SU-DHL10, 3 h) [µM] | IC50 (SUDHL5 [1]; [7]) [M] | IC50 (SUDHL10 [3]; [8]) [M] | IC50 (OPM2) [M] | IC50 (SUDHL10 [3]; [9]) [M] | IC50 (OPM2; Homo sapiens, OPM-2, 72 h) [M] | IC50 (SUDHL5 [1]; [10]) [M]
5 | COC1(c2ccc(OCc3nn(C)c4c3-c3cccc5c(CCCOc6cccc7ccccc67)c(C(=O)O)n(c35)CCCCOC4)cc2)CCOCC1 (single isomer, unassigned) [Example 1-67, 3-{[4-(4-methoxytetrahydro-2H-pyran-4-yl)phenoxy]methyl}-1-methyl-7-[3-(naphthalen-1-yloxy)propyl]-1,10,11,12,13,15-hexahydropyrazolo[4′,3′:9,10][1,6]oxazacycloundecino[8,7,6-hi]indole-8-carboxylic Acid] | 0.34 | 2.95e-06 M | 9.8e-06 | 16.1 | 6.25e-06 | 17.8 |  |  |  |  |  | 1.22e-05 | 2.29e-05 | 1.19e-05 |  |  | 
6 | CC(C)OCc1nn(C)c2c1-c1cccc3c(CCCOc4cccc5ccccc45)c(C(=O)O)n(c13)CCCN(C)C2 (single isomer, unassigned) [Example 1-72, 7,9-dimethyl-1-[3-(naphthalen-1-yloxy)propyl]-1-[(propan-2-yloxy)methyl]-4,5,6,7,8,9-hexahydropyrazolo[3′,4′:7,8][1,5]diazecino[9,10,1-hi]indole-2-carboxylic Acid] | 0.0126 | 1.37e-05 M |  | > 33 | 1.85e-05 | > 33 | 2.38e-05 |  |  |  |  | 8.53e-06 | 1.98e-05 | 1.53e-05 |  |  | 
7 | COCc1nn(C)c2c1-c1cccc3c(CCCOc4cccc5ccccc45)c(C(=O)O)n(c13)CCCN(C)C2 (single isomer, unassigned; enantiomer 1) [Example 1-103, 11-(methoxymethyl)-7,9-dimethyl-1-[3-(1-naphthyloxy)propyl]-4,5,6,7,8,9-hexahydropyrazolo[3′,4′:7,8][1,5]diazecino[9,10,1-hi]indole-2-carboxylic Acid (Enantiomer 1)] | 0.00735 |  |  |  |  |  | 3.92e-06 | 1.02e-05 | 2.83 | > 3.3e-05 | 7.79 |  |  |  | 1.27e-05 | 1.58e-05 | 3.97e-06
8 | Cc1c2c(nn1CCN1CCOCC1)COCCCCn1c(C(=O)O)c(CCCOc3cccc4ccccc34)c3cccc-2c31 (single isomer, unassigned; enantiomer 1) [Example 054, 3-methyl-2-[2-(morpholin-4-yl)ethyl]-7-[3-(naphthalen-1-yloxy)propyl]-2,10,11,12,13,15-hexahydropyrazolo[4′,3′:9,10][1,6]oxazacycloundecino[8,7,6-hi]indole-8-carboxylic acid-N-ethylethanamine Salt (Enantiomer 1)] | 0.00156 | 2.44e-06 M |  | 1.47 |  | 6.64 | 8.08e-07 |  |  | 2.48e-05 |  | 1.61e-06 | 4.68e-06 | 7.46e-06 |  |  | 
9 | CN1CCCn2c(C(=O)O)c(CCCOc3cccc4ccccc34)c3cccc(c32)-c2c(CNCC(F)(F)F)nn(C)c2C1 (single isomer, unassigned; enantiomer 1) [Example 130, 7,9-dimethyl-1-(3-(naphthalen-1-yloxy)propyl-11-{[(2,2,2-trifluoroethyl)amino]methyl}-4,5,6,7,8,9-hexahydropyrazolo[3′,4′:7,8][1,5]diazecino[9,10,1-hi]indole-2-carboxylic acid-N-ethylethanamine Salt (Enantiomer 1)] | 0.0331 |  |  |  |  | > 33 | 1.17e-05 | 6.42e-06 | 18.9 | 1.11e-05 | 24.4 |  | > 3.3e-05 | 6e-06 | 1.71e-05 |  | 1.53e-05
10 | COCc1nn(C)c2c1-c1cccc3c(CCCOc4cccc5ccccc45)c(C(=O)O)n(c13)CCCCOC2 (single isomer, unassigned; enantiomer 1) [Example 159, 3-(methoxymethyl)-1-methyl-7-[3-(naphthalen-1-yloxy)propyl]-1,10,11,12,13,15-hexahydropyrazolo[4′,3′:9,01][1,6]oxazacycloundecino[8,7,6-hi]indole-8-carboxylic acid-N-ethylethanamine Salt (Enantiomer 1)] | 0.0238 | 2.98e-05 M and > 3.3e-05 M | 1.75e-05 |  |  | > 33 |  |  | 13.8 | > 3.3e-05 | 28.6 |  | > 3.3e-05 |  | 3.05e-05 | > 3.3e-05 | 1.76e-05
